# From patent publication US5446157A, “Boron difluoride compounds useful in photodynamic therapy and production of laser light” (priority 1993, dated 1995)
# “Also recorded” adds a separate entry of the source. Structures can show the parent of a compound that is named as a salt.
# Tests used:
# [1] = Solubility/fluorescence in various solvents (Tables I, II); assay type: physicochemical
# Experimental: In addition, tests were conducted on the product in order to determine its solubility/fluorescence in various solvents. One property of the compositions described herein involves a variable degree of solubility/fluorescence relative to the solvents with which they are combined. Data showing a variety of different solvents combined with the product of Example I is presented below in Table I:
# As in Example I, tests were conducted on the product in Example II in order to determine its fluorescence in various solvents. Data showing a variety of different solvents combined with the product of Example II is presented below in Table II: […]
# [2] = Laser characteristics of pyrromethene-BF2 complexes under flashlamp excitation (Table IV); settings: DMA/MeOH
# [3] = P-BF2 dyes dispersed in acrylic co-polymer (solid-state laser)
# Source text: Any laser dye of the present invention may be substituted for the dye in any of the examples of that incorporated patent. The matrix generally includes solid polymeric host laser rods prepared using bulk polymerization of acrylic acid ester comonomers.
# [4] = Triplet-triplet (T--T) absorption; assay type: physicochemical; settings: fluorescent spectral area
# Experimental: The T--T absorption spectrum was recorded at 77K, employing a 1×10^-4 molar solution of 2-methyltetrahydrofuran as solvent.
# breast tumors = assay: Photodynamic therapy of DMBA-induced breast tumors, intratumor injection (Table VIII); assay type: in vivo, female Sprague Dawley rats; settings: for COMPLETE RESPONSE (ANIMALS) / FINAL TOTAL TUMOR NO. / FINAL MEAN TUMOR VOLUME: four weeks
# Experimental: Breast tumors were induced in fifty-day-old female Sprague Dawley rats by the oral feeding of dimethylbenzanthracene (DMBA) in peanut oil. Individual rats were fed 10 mg DMBA per 100 g body weight via gavage tubes. Palpable tumors developed 45 to 92 days after feeding. […] Following tumor development, tumors were measured and injected with PMPDS-BF2 dissolved in saline ([…] was injected into the center of the tumors to a concentration of 20 μg/cm^3 of tumor volume. Twenty-four hours after intratumor injection, the rats were anesthetized using phenobarbital (2 mg/kg i.p.) and the injected tumors were exposed to light from either a quartz lamp (100 or 250 w) or an argon laser (with 488/514 and 628 nm frequencies) for 10-20 minutes. Also included in this experiment were three control groups: (1) saline injected, unirradiated tumors; (2) saline injected, irradiated tumors; (3) PMPDS-BF2 injected, and unirradiated tumors.
# [5] = tested on: human ovarian tumor cells; assay: Photodynamic growth inhibition of human ovarian cancer cells in vitro (soft agar); assay type: cell-based
# Experimental: 1,3,5,7,8-pentamethylpyrromethene-boron difluoride-2,6-disodium disulfonate salt (PMPDS-BF2) and bimane diphosphonate were prepared according to previously described methods.
# Human ovarian cells from fifteen individual patients were evaluated. All cancers were epithelial originating ovarian adenocarcinomas. Each cancer had been passed through at least one culture in RPMI-1640 (10% FBA) medium prior to use in the present study. In each case cells were harvested and washed in RPMI-1640 medium and resuspended in concentrations of 2.6×10^6 cells/ml at 5° C. The cells (2.6×10^6 cells/ml) were then incubated in a RPMI-1640 growth medium (containing 10% fetal bovine […], penicillin 100 U/ml and streptomycin 100 μg/ml) pH, 7.4 with graded doses of PMPDS-BF2 complex for 30 minutes at 37° C. in a 5% CO2 /air incubator with gentle shaking. The three concentrations of PMPDS-BF2 evaluated in this study were 0.004 μg, 0.04 μg, and 0.4 μg/ml of medium. The cell suspension was then washed with cold RPMI-1640 medium to remove extracellular PMPDS-BF2 complex, and then the cells were resuspended in fresh RPMI growth medium. Fifteen (15) ml portions of the cell suspensions (2.6×10^6 cells/ml) were irradiated in glass tubes at 37° C. in room air over a 10-20 minute period using a General Electric sun lamp. Controls were cells exposed to PMPDS-BF2 with no light exposure, cells with light exposure alone and cells with neither exposure to light nor chemicals.
# Under identical conditions as above, bimane diphosphonate was evaluated for cytotoxic activities in the presence and absence of light. After the above incubations with PMPDS-BF2 or bimanes±light as controls, melted Bacto-agar (Difco Laboratories, Inc., Detroit, Mich.) was added to the cell suspensions to a final concentration of 0.3% agar. The mixtures were plated in 35 mm plastic tissue culture dishes on a feeder layer containing an enriched McCoy's 5A medium and 0.5% agar with the addition of 2-mercaptoethanol (5 mM) and DEAE-dextran. The seeding density for the cells in this study was kept between 1-5×10^4 cells per dish and the plates incubated at 37° C. in a CO2 incubator. Incubation was continued for another 2-3 weeks and the plates examined under an inverted phase contrast microscope and cells counted. Since these cells grow as tight aggregates in soft-agar, it was impossible to determine the number of cells in each growth. Instead, an ocular micrometer was used to count colonies 30 μm or larger in size. Plating efficiency, defined as the number of colonies formed per 100 viable cells plated, was compared between groups.
# [6] = tested on: metastatic breast cancer spread to the chest wall; assay: Topical photodynamic treatment of metastatic breast cancer of the chest wall, case history; assay type: in vivo, patient
# Source text: The following case history also illustrates topical application of one of the compounds of the present invention in a person with a 12-year history of metastatic breast cancer spread to the chest wall. The patient had been treated with combinations of numerous chemotherapeutic agents and radiation therapy. Their cancer continued to progress and they received nine weekly treatments with a topical 0.3% solution of 1,3,5,7,8-pentamethylpyrromethene boron difluoride-2,6-disulfonate (PMPDS-BF2) in dimethylsulfoxide applied to the chest wall lesions followed by exposure to a General Electric sunlamp for ten minutes. The patient had initially a greater than 50% shrinkage of their tumor, which lasted over nine weeks.
# [7] = topical 0.3% solution in dimethylsulfoxide, sunlamp ten minutes
smiles,measurement,setting,value
"CC1=C(S(=O)(=O)O)C(C)=[N+]2C1=C(C)c1c(C)c(S(=O)(=O)O)c(C)n1[B-]2(F)F [PMPDS-BF2, Disodium salt of 4,4-difluoro-1,3,5,7,8-pentamethyl-4-bora-3a,4a-diaza-s-indacene-2,6-disulfonic acid monohydrate]",Solubility,[1]; (CF3)2 CHOH,Insoluble
same,Solubility,[1]; CH2 Cl2,Insoluble
same,Solubility,[1]; CH3 CO2 C2 H5,Insoluble
same,Solubility,[1]; H2 O,Soluble
same,Solubility,[1]; O(CH2 CH2)2 O,Insoluble
same,Life,[2],very long
same,solubility in the polymer matrix,[3],particularly soluble
same,T--T absorption,[4],barely detectable
same,T--T absorption ε.tau.,[4],~ 3×10^-3
same,COMPLETE RESPONSE (ANIMALS),"breast tumors; 20 ug/cm^3, no light",2/10
same,FINAL TOTAL TUMOR NO.,"breast tumors; 20 ug/cm^3, no light, initial 12",13
same,FINAL MEAN TUMOR VOLUME,"breast tumors; 20 ug/cm^3 intratumor plus light (quartz lamp 100 watt, 20 min), initial 0.3",0.1 cm^3
same,FINAL MEAN TUMOR VOLUME,"breast tumors; 20 ug/cm^3 intratumor, no light, initial 0.2",0.7 cm^3
same,COMPLETE RESPONSE (ANIMALS),breast tumors; 20 ug/cm^3 plus light,7/10
same,FINAL TOTAL TUMOR NO.,"breast tumors; 20 ug/cm^3 plus light, initial 14",3
same,tumor necrosis,breast tumors; injected and irradiated,Tumor necrosis was observed
same,tumor remission,breast tumors; injected and irradiated,50-100%
same,necrosis or remission,"breast tumors; injected, not irradiated",no necrosis or remission
same,inhibition in cell growth,[5]; 0.004 μg/ml plus light,40-70%
same,cell morphology,"[5]; 0.004 μg/ml plus light, within 48 hours",pyknotic changes with nuclear fragmentation
same,colonization / morphology of cells,"[5]; 0.04 μg/ml plus light, three days post exposure","unable to colonize, demonstrated pyknotic changes in the nucleus and cytoplasmic discoloration"
same,inhibition of cell growth,[5]; 0.4 μg/ml plus light,100%
same,cytotoxic response without light,"[5]; absence of light exposure, monohydrate",did not demonstrate significant cytotoxic responses; also recorded: did not produce cytotoxicities
same,shrinkage of tumor,"[6]; topical 0.3% solution in dimethylsulfoxide, nine weekly treatments, sunlamp ten minutes",greater than 50%
same,duration of tumor shrinkage,[6]; [7],over nine
same,toxic reactions,[6]; [7],no toxic reactions
same,course after nine week shrinkage,"[6]; topical 0.3% solution, after nine weeks",the metastatic lesions again began to grow
